Assay results from patent EP4692059A1, “CATIONIC LIPID HAVING DISULFIDE BOND” (Tohoku University, priority 2023, dated 2024).

What was measured:
[1] = Particle size, PdI and zeta potential of mRNA-encapsulating LNPs by dynamic light scattering (Experimental Example 2); format: physicochemical
Description: An acidic buffer solution (total amount: 1080 µL) of nucleic acid was prepared by weighing 7.2 µg of mRNA solution (0.6 mg/mL) in a 5 mL tube and adding acidic malate buffer (20 mM, pH 3.0).
An acidic buffer solution of nucleic acid and an ethanol solution of lipid were each weighed in a syringe.
The particle size, PdI (Polydispersity Index), and zeta potential of the mRNA-encapsulating LNP prepared by the method of the above-mentioned 1 were measured by a dynamic light scattering method (Zetasizer Nano; Malvern).

[2] = tested on: liver; experiment: In vivo gene expression, luciferase luminescence in the liver after tail vein administration (Experimental Example 4); conditions: BALB/c mouse, mRNA 0.05 mg/kg; for amount of luminescence (photons/sec) in liver: tail vein, 4.5 hr after administration, LNP cationic lipid:DOPC:Chol:DMG-PEG2k = 52.5:7.5:40:1.5, prepared as in Experimental Example 2; for relative amount of luminescence: liver luminescence relative to cationic lipid of Comparative Example
Description: LNP encapsulating mRNA that expresses luciferase (cationic lipid:DOPC:Chol:DMG-PEG2k = 52.5:7.5:40:1.5 (molar ratio)) was prepared by the method described in [Experimental Example 2], 1.
(§1) The prepared each mRNA-encapsulating LNP dispersion was administered from the tail vein of BALB/c mouse (male, 5-week-old). The dose of mRNA was set to 0.05 mg per 1 kg body weight of the mouse, and the dose of the mRNA-encapsulating LNP dispersion was set to 10 µL per 1 g body weight of the mouse. After 4.5 hr from the administration of the mRNA-encapsulating LNP dispersion, a PBS solution of D-luciferin potassium was administered into the abdominal cavity of the mouse. The dose of D-luciferin potassium was set to 3 mg per mouse, and the dose of the PBS solution of D-luciferin potassium was set to 200 µL per mouse. After 15 min from the administration of the PBS solution of D-luciferin potassium, the mouse was euthanized, and the liver was isolated. The luminescence in the liver was quantified using an in vivo imaging system (IVIS) with an exposure of 10 sec. The amount of luminescence in the liver was quantified by image analysis using Live Imaging software attached to IVIS. The amount of luminescence (photons/sec) was calculated from the acquired image and used as an index of gene expression activity. The cationic lipids used, the luminescence intensity in the liver, and the relative luminescence intensity (= luminescence intensity in the liver when cationic lipid of Example was used/luminescence intensity in the liver when cationic lipid of Comparative Example was used) are shown in Table 7-1 to Table 7-3. "E+0a" (a: integer) indicated in Table 7-1 to Table 7-3 means "10^a". For example, "3.94E+09" means "3.94×10^9". […]

[3] = tested on: HeLa cells; experiment: In vitro gene expression in HeLa cells (luciferase mRNA-encapsulating LNP, cumulative luminescence in 24 hr); conditions: for cumulative luciferase luminescence intensity (RLU) in 24 hr: LNP cationic lipid:DOPC:Chol:DMG-PEG2k = 50:10:40:1, mRNA 0.2 µg per dish, E+0a means 10^a; for relative luminescence intensity: cumulative intensity in 24 hr relative to cationic lipid of Comparative Example
Description: LNP encapsulating mRNA that expresses luciferase (cationic lipid:DOPC:Chol:DMG-PEG2k = 50:10:40:1 (molar ratio)) was prepared by the method described in [Experimental Example 2], 1.
HeLa cells, which are human cervical cancer cells, were seeded in a 3.5 cm dish at 5.0×10^4 cells/2 mL/Dish 24 hours before transfection. After 24 hr, the medium was changed to a culture medium (D-MEM) containing 0.1 mM D-luciferin. The prepared mRNA-encapsulating LNP was diluted with PBS to an mRNA concentration of about 1 µg/mL. The diluted mRNA-encapsulating LNP solution (about 200 µL, mRNA: 0.2 µg) was added to a 3.5 cm dish, and set in an incubator luminometer KronosDio. The luminescence intensity of luciferase was measured for 2 min every one hour. The cumulative luciferase luminescence intensity in 24 hr was calculated from the obtained time change of expression. […] In Comparative Example, the cationic lipid described in Table 2 was used.

[4] = Particle size, PdI and zeta potential of mRNA-encapsulating LNPs by dynamic light scattering (Experimental Example 6); format: physicochemical; conditions: mRNA-encapsulating LNP; for zeta potential (mV): cationic lipid:DOPC:Chol=49:7.5:42.5:1, dispersion in TBS (Tables 8-1, 8-2); for PdI / particle size (nm): cationic lipid:DOPC:Chol=49:7.5:42.5:1, dispersion in TBS, dynamic light scattering (Tables 8-1, 8-2)
Description: An acidic buffer solution (total amount: 1300 µL) of nucleic acid was prepared by weighing 6.5 µg of mRNA solution (0.6 mg/mL) in a 5 mL tube and adding acidic citrate buffer (20 mM, pH 5.0).
An acidic buffer solution of nucleic acid and an ethanol solution of lipid were each weighed in a syringe. […] The obtained concentrate was diluted with TBS to a lipid concentration of 2 mM to give a dispersion containing LNP.
The particle size, PdI (Polydispersity Index), and zeta potential of the mRNA-encapsulating LNP prepared by the method of the above-mentioned 1 were measured by a dynamic light scattering method (Zetasizer Nano; Malvern). […]

[5] = tested on: liver; experiment: In vivo gene expression, luciferase luminescence in the liver after tail vein administration (Experimental Example 7); conditions: BALB/c mouse, mRNA 0.05 mg/kg
Description: LNP encapsulating mRNA that expresses luciferase (cationic lipid:DOPC:Chol:DMG-PEG2k = 52.5:7.5:40:1.5 (molar ratio)) was prepared by the method described in [Experimental Example 6], 1.
as §1, with “9.” for “7-1 to Table 7-3. "E+0a" (a: integer) indicated in Table 7-1 to Table 7-3 means "10^a".”

[6] = mRNA-encapsulating LNP, cationic lipid:DOPC:Chol = 50:10:40 (molar ratio) + DMG-PEG2k about 1 mol, Polydispersity Index, dynamic light scattering
[7] = mRNA-encapsulating LNP, cationic lipid:DOPC:Chol = 50:10:40 (molar ratio) + DMG-PEG2k about 1 mol, Zetasizer Nano
[8] = mRNA-encapsulating LNP, cationic lipid:DOPC:Chol = 50:10:40 (molar ratio) + DMG-PEG2k about 1 mol, dynamic light scattering
[9] = mRNA-encapsulating LNP containing the cationic lipid, dispersion in PBS (Table 5-3)
[10] = mRNA-encapsulating LNP containing the cationic lipid, dispersion in PBS, dynamic light scattering (Table 5-3)

Row | SMILES | PdI [1, 6] | zeta potential (mV) [1, 7] | particle size (nm) [1, 8] | amount of luminescence (photons/sec) in liver [2] | relative amount of luminescence [2] | cumulative luciferase luminescence intensity (RLU) in 24 hr [3] | relative luminescence intensity [3] | zeta potential (mV) [1, 9] | PdI [1, 10] | particle size (nm) [1, 10] | zeta potential (mV) [4] | PdI [4] | particle size (nm) [4] | amount of luminescence (photons/sec) in liver ([5]; tail vein, 4.5 hr after administration, LNP cationic lipid:DOPC:Chol:DMG-PEG2k = 52.5:7.5:40:1.5, prepared as in Experimental Example 6) | relative amount of luminescence ([5]; liver luminescence relative to cationic lipid of Comparative Example)
1 | CCCCCCCC/C=C\CCCCCCCC(=O)Oc1ccc(CC(=O)OCCC2CCN(CCSSCCN3CCC(CCOC(=O)Cc4ccc(OC(=O)CCCC(=O)OC[C@H](COC(=O)CCCCCCC)OC(=O)CCCCCCC)cc4)CC3)CC2)cc1 [compound 5] | 0.112 | -4.68 mV | 106.10 nm | 3.76E+09 photons/sec | 2.48 | 4.16E+07 RLU | 2.25 |  |  |  |  |  |  |  | 
2 | CCCCCCC(C/C=C\CCCCCCCC(=O)Oc1ccc(CC(=O)OCCC2CCN(CCSSCCN3CCC(CCOC(=O)Cc4ccc(OC(=O)CCCCCCC/C=C\CC(CCCCCC)OC(=O)c5ccc(OCC)c(OCC)c5)cc4)CC3)CC2)cc1)OC(=O)c1ccc(OCC)c(OCC)c1 (stereo not shown) [compound 173] |  |  |  |  |  |  |  | -4.4 mV | 0.070 | 99.5 nm | -4.83 mV | 0.035 | 126.1 nm | 9.37E+09 photons/sec | 4.57
3 | CCCCCCCC/C=C\CCCCCCCC(=O)Oc1ccc(CC(=O)OCCC2CCN(CCSSCCN3CCC(CCOC(=O)Cc4ccc(OC(=O)CCCCCCC/C=C\C[C@H](CCCCCC)OC(C)=O)cc4)CC3)CC2)cc1 [compound 1] | 0.070 | -3.79 mV | 96.63 nm | 3.94E+09 photons/sec | 2.59 | 2.61E+07 RLU | 1.42 |  |  |  |  |  |  |  | 
4 | CCCCCC/C=C\COC(=O)CCCC(=O)Oc1ccc(CC(=O)OCCC2CCN(CCSSCCN3CCC(CCOC(=O)Cc4ccc(OC(=O)CCCC(=O)OC/C=C\CCCCCC)cc4)CC3)CC2)cc1 [compound 41] | 0.067 | -2.30 mV | 123.30 nm | 1.73E+09 photons/sec | 1.14 |  |  |  |  |  |  |  |  |  | 
5 | CCCCCC/C=C\COC(=O)CCCC(=O)Oc1ccc(CC(=O)OCCC2CCN(CCSSCCN3CCC(CCOC(=O)Cc4ccc(OC(=O)CCCCCCC/C=C\CCCCCCCC)cc4)CC3)CC2)cc1 [compound 43] | 0.072 | -3.98 mV | 90.46 nm |  |  |  |  |  |  |  | -5.9 mV | 0.17 | 128.2 nm |  | 
6 | CCCCCCC#CCCOC(=O)CCCC(=O)Oc1ccc(CC(=O)OCCC2CCN(CCSSCCN3CCC(CCOC(=O)Cc4ccc(OC(=O)CCCC(=O)Oc5c(C)c(C)c6c(c5C)CCC(C)(CCCC(C)CCCC(C)CCCC(C)C)O6)cc4)CC3)CC2)cc1 (stereo not shown) [compound 150] | 0.071 | -2.14 mV | 94.66 nm |  |  |  |  |  |  |  | -8.1 mV | 0.11 | 130.2 nm |  | 
7 | CCCCCCC#CCCOC(=O)CCCC(=O)Oc1ccc(CC(=O)OCCC2CCN(CCSSCCN3CCC(CCOC(=O)Cc4ccc(OC(=O)CCCCCCCC(=O)OC(CCCCCCCC)CCCCCCCC)cc4)CC3)CC2)cc1 [compound 148] | 0.063 | -4.31 mV | 92.96 nm |  |  |  |  |  |  |  | -7.4 mV | 0.15 | 133.6 nm |  | 
8 | CCCCCCCC/C=C\CCCCCCCC(=O)Oc1ccc(CC(=O)OCCC2CCN(CCSSCCN3CCC(CCOC(=O)Cc4ccc(OC(=O)CCCC(=O)OC[C@H](COC(=O)CCCCC)OC(=O)CCCCC)cc4)CC3)CC2)cc1 [compound 13] | 0.073 | -3.63 mV | 94.42 nm |  |  | 1.24E+08 RLU | 6.72 |  |  |  |  |  |  |  | 
9 | CCCCCCC#CCCOC(=O)CCCC(=O)Oc1ccc(CC(=O)OCCC2CCN(CCSSCCN3CCC(CCOC(=O)Cc4ccc(OC(=O)CCCCCCC/C=C\CCCCCCCC)cc4)CC3)CC2)cc1 [compound 149] | 0.059 | -6.03 mV | 97.44 nm |  |  |  |  |  |  |  | -6.2 mV | 0.15 | 123.1 nm |  | 
10 | CCCCCCCC/C=C\CCCCCCCC(=O)Oc1ccc(CC(=O)OCCC2CCN(CCSSCCN3CCC(CCOC(=O)Cc4ccc(OC(=O)CCCCCCCCCCC(CCCCCC)OC(=O)CCCCCCC)cc4)CC3)CC2)cc1 (stereo not shown) [compound 145] |  |  |  | 6.65E+09 photons/sec | 4.37 |  |  | -2.39 mV | 0.034 | 83.1 nm | -3.79 mV | 0.082 | 122.1 nm |  | 
11 | CCCCCC[C@@H](C/C=C\CCCCCCCC(=O)Oc1ccc(CC(=O)OCCC2CCN(CCSSCCN3CCC(CCOC(=O)Cc4ccc(OC(=O)CCCC(=O)OC[C@H](COC(C)=O)OC(C)=O)cc4)CC3)CC2)cc1)OC(=O)CCCCC [compound 17] | 0.061 | -5.19 mV | 127.90 nm | 3.73E+09 photons/sec | 2.45 | 5.18E+07 RLU | 2.81 |  |  |  |  |  |  |  | 
12 | CCCCCCCC/C=C\CCCCCCCC(=O)Oc1ccc(CC(=O)OCCC2CCN(CCSSCCN3CCC(CCOC(=O)Cc4ccc(OC(=O)CCCC(=O)N(CCCCCC)CCCCCC)cc4)CC3)CC2)cc1 [compound 124] |  |  |  | 5.12E+09 photons/sec | 3.37 |  |  | -5.07 mV | 0.111 | 96.63 nm |  |  |  |  | 
